Experimental data from patent publication US9265248B2, “Water soluble antimicrobial composition” (Medivators Inc., priority 2011, dated 2016).

Tested on: bacteria
Experiment: Residual test on coated carriers, 10 minute contact time (organism not named)
Type: cell-based
Conditions: average over all inocula of the sample
Source text: Solutions of examples 12-01 to 12-05 were used to coat polycarbonate or glass carriers. Once dried, bacteria were inoculated on top of the coating and a log reduction of bacteria was obtained after a certain contact time. CFU=Colony Forming Units, TNTC=Too numerous to count, BCP=benzalkonium chloride powder, ThP=thymol powder

## alkyldimethylbenzylammonium chloride [0.3 wt % benzalkonium chloride control]
  Average Log 10 Reduction: 0.5
